Data reported in patent US7078400B2, “20-HETE synthase inhibitor” (Taisho Pharmaceutical Co., Ltd., priority 1999, dated 2006).

Columns and labels:
[1] = tested on: 20-HETE synthase originated from rat kidney microsome; experiment: Inhibitory effect of 20-HETE synthase originated from rat kidney microsome; assay type: biochemical; details: rat kidney microsome; for Inhibition rate (1 μM): 20-HETE production without compound set to 100%
Protocol: Experimental Example [Inhibitory effect of 20-HETE synthase originated from rat kidney microsome]
Regarding the compounds listed in Table 1, their inhibitory activity to production of 20-HETE was examined.
The subject compound for this examination was added to a buffer comprising 50 mM of 3-morpholinopropane sulfonic acid (pH7.4), 5 mM of magnesium chloride and 1 mM of ethylenediaminetetraacetic acid (EDTA) disodium salt.
After that, the rat kidney microsome (microsome fraction prepared from the kidney of a spontaneous hypertension rat (male, 6 weeks of age)) as an enzyme, [5,6,8,9,11,12,14,15] tritium-arachidonic acid (supplied by Amasham) as a substrate, and NADPH (supplied by Sigma) as a coenzyme were added and reacted for 1.5 hours at 37° C.
After the reaction, formic acid was added to stop the reaction, and then acetonitrile (final concentration of 50%) was added and left for 1.5 hours at room temperature.
The activity of 20-HETE synthase was measured by using a high performance liquid chromatograph having a detector for radioactive substances (supplied by Gilson), and equipped with a C18 reversed phase column (Biocyl C18, supplied by Bio-rad).

[2] = 1 μM of the subject compound added
[3] = concentration at which production of 20-HETE was inhibited to 50%
[4] = concentration at which 20-HETE production was inhibited to 50%

SMILES	melting point	Inhibition rate (1 μM) [1, 2]	IC50 [1, 3] [nM]	Inhibition rate (1 μM) ([1]; 1 μM of subject compound)	IC50 [1, 4] [nM]
CC(C)c1cccc(N/C=N/O)c1 [Comp. 29]	93 to 94.5 °C	93.6			
CCCc1ccc(N/C=N/O)cc1 [Comp. 31]	131 to 132 °C	97.8	6.6		
CC(C)c1ccccc1N/C=N/O [Comp. 32]	114 to 115 °C	87.2			
O/N=C/Nc1c(Br)cccc1Br [Comp. 33]	171 °C	91.9			
O/N=C/Nc1ccc(Br)cc1Br [Comp. 34]	163 to 163.5 °C	90.6	79.7		
O/N=C/Nc1ccc(Br)cc1 [Comp. 36]	163 to 164 °C	98.3	136		
Cc1cc(Cl)ccc1N/C=N/O [Comp. 38]	151 to 152.5 °C	89.8	79.8		
O/N=C/Nc1ccc(Cl)cc1Cl [Comp. 40]	160 to 161 °C	98.2			
Cc1cc(Br)ccc1N/C=N/O [Comp. 41]	161 to 161.5 °C	96.6	49		
CCC(C)c1ccccc1N/C=N/O (stereo not shown) [Comp. 42]	144 to 145 °C	99.9			
Cc1ccc(F)c(N/C=N/O)c1 [Comp. 43]	123 to 124 °C		168		
CCCOC(=O)c1ccc(N/C=N/O)cc1 [Comp. 44]	145 to 146 °C		8.1		
Cc1cc(C)c(N/C=N/O)c(Br)c1 [Comp. 45]	163.5 to 164.5 °C	53.5			
O/N=C/Nc1cccc(C(F)(F)F)c1 [Comp. 46]	100.5 to 102 °C	48.5	355		
Cc1cc(I)ccc1N/C=N/O [Comp. 47]	166 to 166.5 °C	94.8	6.5		
O/N=C/Nc1cc(C(F)(F)F)cc(C(F)(F)F)c1 [Comp. 49]	122.5 to 124 °C	46.7			
O/N=C/Nc1ccc(F)cc1F [Comp. 50]	155.5 to 156.5 °C		25.5		
Cc1cc(N/C=N/O)ccc1Br [Comp. 51]	157 to 158 °C	50.2	21.8		
Cc1ccc(N/C=N/O)cc1I [Comp. 55]	130.5 to 132 °C	31.3			
CCc1cc(C#N)ccc1N/C=N/O [Comp. 56]	144 to 145.5 °C	50.6			
CC(C)c1ccc(N/C=N/O)c(Br)c1 [Comp. 58]	146.5 to 148 °C	99.9	7.1		

SMILES	melting point	Inhibition rate (1 μM) [1, 2]	IC50 [1, 3] [nM]	Inhibition rate (1 μM) ([1]; 1 μM of subject compound)	IC50 [1, 4] [nM]
Cc1cc(C)c(N/C=N/O)c(C)c1 [Comp. 72]	168 to 169 °C	99.2			
O/N=C/Nc1cccc(Br)c1 [Comp. 82]	133.5 to 134.5 °C	70.9			
O/N=C/Nc1c(Cl)cc(Cl)cc1Cl [Comp. 121]	166.5 to 167 °C	72.0			
CCOC(=O)Cc1ccc(N/C=N/O)cc1 [Comp. 122]	106 to 107.5 °C	94.7	28.9		
O/N=C/Nc1cccc(Oc2ccccc2)c1 [Comp. 124]	100 to 102 °C	92.2	354		
COc1cccc(C(F)(F)F)c1N/C=N/O [Comp. 125]	138 to 139.5 °C (dec.)	67.6			
O=[N+]([O-])c1cc(F)ccc1N/C=N/O [Comp. 126]	172.5 to 173 °C (dec.)	34.9			
O/N=C/Nc1ccc(Oc2ccc(Cl)cc2)cc1 [Comp. 128]	143 to 145 °C	102.0	7		
Cc1ccc(Oc2ccc(N/C=N/O)cc2)cc1 [Comp. 130]	155 to 156 °C	116.5	6.9		
O/N=C/Nc1ccc(Oc2ccccc2)cc1 [Comp. 131]	144 to 145.5 °C	89.2	26		
Cc1ccc(N/C=N/O)cc1F [Comp. 161]	156 to 157 °C	88.6	13.4		
Cc1cc(N/C=N/O)ccc1C(C)C [Comp. 178]	121 to 122.5 °C	91.4	9		
OCCc1ccc(N/C=N/O)cc1 [Comp. 207]	138 to 140 °C			90.7	11.6
OCc1ccc(N/C=N/O)cc1 [Comp. 209]	169.5 to 170 °C			102.2	152
C#CCOc1ccc(N/C=N/O)cc1 [Comp. 227]	139 to 141 °C			117.8	39.7
N#Cc1ccc(-c2ccc(N/C=N/O)cc2)cc1 [Comp. 229]	194 to 195 °C			99.3	16
O/N=C/Nc1cccc2c1CCCC2 [Comp. 231]	168.5 to 169 °C			92.9	196
CCCC(=O)c1ccc(N/C=N/O)c(C)c1 [Comp. 232]	154 to 155 °C			86.0	6.6
O/N=C/Nc1ccccc1-c1ccccc1 [Comp. 234]	111 to 113 °C			74.1	
O/N=C/Nc1ccc(Br)c2ccccc12 [Comp. 235]	167.5 to 168 °C			77.8	5920
O/N=C/Nc1ccc(/C=C/c2ccccc2)cc1 [Comp. 237]	197.5 to 198 °C			96.6	26.2

SMILES	melting point	Inhibition rate (1 μM) [1, 2]	IC50 [1, 3] [nM]	Inhibition rate (1 μM) ([1]; 1 μM of subject compound)	IC50 [1, 4] [nM]
O/N=C/Nc1ccc2c(c1)CCC2 [Comp. 238]	142.5 to 144 °C			101.6	30
O=C(c1ccccc1)c1ccc(N/C=N/O)cc1 [Comp. 239]	182.5 to 183 °C				4080
O/N=C/Nc1ccc(-n2ccc(C(F)(F)F)n2)cc1 [Comp. 273]	165 to 167 °C			89.2	96.8
Cc1cc(NC(=O)c2ccccc2)c(Cl)cc1N/C=N/O [Comp. 276]	207 to 207.5 °C			71.8	55.9
O/N=C/Nc1ccc(N2CCCCC2)cc1 [Comp. 294]	162 to 162.5 °C			103.2	4.9
O/N=C/Nc1ccc(N2CCOCC2)cc1 [Comp. 300]	182 to 182.5 °C			96.3	5.7
CC(C)Oc1ccc(N/C=N/O)cc1 [Comp. 316]	144 to 146 °C			97.9	24
CCCCCOc1ccc(N/C=N/O)cc1 [Comp. 319]	126 to 137.5 °C			99.9	3.8
CCCCCCOc1ccc(N/C=N/O)cc1 [Comp. 320]	125 to 126 °C			92.5	1.3
CCCCCCCOc1ccc(N/C=N/O)cc1 [Comp. 321]	121 to 122.5 °C			99.9	3.7
CCCCCCCCCOc1ccc(N/C=N/O)cc1 [Comp. 323]	128 to 130 °C				25.9
CC(C)(C)COc1ccc(N/C=N/O)cc1 [Comp. 324]	148.5 to 149.5 °C			99	3.7
CC(C)(C)CCOc1ccc(N/C=N/O)cc1 [Comp. 325]	123 to 125 °C			106	2.6
C=CCCCOc1ccc(N/C=N/O)cc1 [Comp. 329]	127 to 128 °C			121.1	0.7
C=CCCOc1ccc(N/C=N/O)cc1 [Comp. 330]	122 to 124 °C			118.8	2.4
C#CCCCOc1ccc(N/C=N/O)cc1 [Comp. 331]	139 to 139.5 °C			118.8	3.2
C/C=C/C=C/COc1ccc(N/C=N/O)cc1 [Comp. 332]	169.5 to 170 °C			110.6	2.1
CC#CCOc1ccc(N/C=N/O)cc1 [Comp. 333]	171.5 to 172 °C			119.3	2.2
CC(C)=CCOc1ccc(N/C=N/O)cc1 [Comp. 334]	125 to 126 °C			105	3.2
C#CCCOc1ccc(N/C=N/O)cc1 [Comp. 335]	139 to 141 °C			110	1.4
C/C=C/COc1ccc(N/C=N/O)cc1 [Comp. 336]	142.5 to 146 °C			117.6	3.2
